Laboratory results published in the NIST ThermoML archive (doi:10.1016/j.fluid.2015.09.034).
Numbers after ± are expanded uncertainties.

Settings: Liquid, Chromatography

- vapor or sublimation pressure (223.14 K): 682.9 ± 53 kPa
- vapor or sublimation pressure (298.17 K): 6436.9 ± 500 kPa
- vapor or sublimation pressure (303.16 K): 7210.5 ± 560 kPa
SMILES: O=C=O [carbon dioxide]
